Source: patent US20130164347A1, “MULTILAYER POLYMERIC DRUG DELIVERY SYSTEM” (priority 2011, published 2013)

Key:
[1] = In-vitro release of 5-FU from partially encapsulated multilayer polymeric films
Description: In-Vitro release of 5-Fluoro-Uracil (5-FU) has been quantified over time from Partially Encapsulated Multilayer Polymeric films.
The resulting test articles, 2.5 mm diameter×1.25 mm high, were immersed in a PBS solution supplemented by 2 percent FBS onto a shaker in an incubator at 37 degrees Celsius. Release of 5-FU was quantified by HPLC-UV as follows: after filtration, aliquots were injected onto an Agilent 1100 column (50×4.6 mm×3 um with guard column). The 5-FU detection was performed via a UV Detector (Wavelength: 265 nm). The flow rate was 1.0 mL/min. The mobile phase was a mixture of TFA (0.1 percent) and Acetonitrile.

[2] = In-vitro release of bimatoprost from fully encapsulated multilayer polymeric films; assay type: physicochemical; settings: for release profile of bimatoprost: PBS + 2 percent FBS, 37 degrees Celsius
Description: In Vitro release studies were performed using the fully encapsulated polymeric films (wherein the carrier discs are fully encapsulated within the surrounding barrier layers) containing bimatoprost as prepared in Example 6.

[3] = Thermal decomposition of bioactive agent; assay type: physicochemical
[4] = partially encapsulated film, 30 percent w/w
[5] = fully encapsulated film laminated at 140 degrees Fahrenheit (60 degrees Celsius)

## O=c1[nH]cc(F)c(=O)[nH]1 [5-FU, 5-Fluoro-Uracil]
[1]; fully encapsulated films with no adhesive layers
  release profile of 5-FU: delayed sustained release
[1]; [4]
  burst duration: 2 days
  rest period after burst: approximately 9 days
  start of delayed sustained release: ~11 days
[1]; partially encapsulated film, 30 percent w/w, 2.5 mm disk, PBS + 2 percent FBS, 37 degrees Celsius
  release profile of 5-FU: bimodal release profile

## CCNC(=O)CCC/C=C\C[C@@H]1[C@@H](/C=C/[C@@H](O)CCc2ccccc2)[C@H](O)C[C@@H]1O [bimatoprost]
[2]; fully encapsulated film laminated at 131 degrees Fahrenheit (55 degrees Celsius)
  release profile of bimatoprost: zero-order release
[2]; [5]
  period of no or undetectable release: 10 days
  release profile of bimatoprost: delayed sustained release
[2]; monolayer 2 mm diameter carrier film compression molded at 152 degrees Fahrenheit (67 degrees Celsius)
  drug released in the first 24 hours: 99%
[3]
  decomposition temperature: 70 degrees Celsius
